Measurements reported in patent US9163021B2, “Pyrrolo[3,2-c]pyridine tropomyosin-related kinase inhibitors” (Pfizer Limited, priority 2012, dated 2015).

molecular target: TRKA (Homo sapiens (Human), UniProt P04629); test: Isolated TRK enzyme assay (HTRF KinEASE-TK), PV3144 TrkA enzyme assay; type: biochemical; conditions: arithmetic mean where more than one reading
Procedure: Isolated TRK Enzyme assays use the HTRF KinEASE-TK kit (Cisbio Cat#62TK0PEJ) with recombinant His-tagged cytoplasmic domains of each TRK receptor sourced from Invitrogen (see table below). This activity-assay measures the phosphorylation of tyrosine residues within a substrate from the HTRF kit which has been validated by Cisbio for a variety of tyrosine kinases including the TRK receptors.
0.5 mM stock solutions of test compounds are prepared and serially diluted in 100% DMSO. A standard curve using the compound of Example 135 disclosed in WO2005/116035 of 150 uM is also prepared on each test plate. High percentage effect (HPE) is defined by 150 uM (using the compound of Example 135 as disclosed in WO2005/116035) and 0% effect (ZPE) is defined by 100% DMSO. Greiner low volume black plates containing 0.2 ul of serially diluted compound, standard and HPE/ZPE are created using the Bravo nanoliter dispenser.
1× enzyme buffer is prepared from 5× Enzymatic Buffer from the Cisbio KinEASE TK kit using MilliQ water. The buffer is then supplemented with 10 mM MgCI and 2 mM DTT (both from Sigma). In the case of TRKB, the buffer is also supplemented with 125 nM Supplement Enzymatic Buffer (SEB) from the Cisbio kit.
2× FAC of enzyme and 2× FAC ATP diluted in 1× complete enzyme buffer is incubated at room temperature for 20 minutes to preactivate the enzyme. Following this preactivation step, 5 ul/well of enzyme+ATP mix is added using a Multidrop Micro to the assay plate, spotted with 0.2 ul 100% DMSO compound. This is left for 20 mins at room temperature before adding 5 ul of 2 uM TK-substrate-Biotin (from the Cisbio kit) diluted in 1× enzyme buffer (1 uM FAC) using the Multidrop Micro. The reaction is incubated at room temperature for the optimized assay reaction time (see table). The reaction is stopped by adding 10 ul/well HTRF Detection Buffer containing 0.25 uM Streptavidin-XL665 (0.125 uM FAC) and 1:200 TK Antibody-Cryptate using a Multidrop.
After the Detection Reagent addition, plates are covered and incubated at room temperature for 60 minutes. HTRF signal is read using an Envision reader, measured as a ratio of emissions at two different wavelengths, 620 nm and 665 nm. […] Test compound data are expressed as percentage inhibition defined by HPE and ZPE values for each plate. Percentage inhibition in the presence of test compound is plotted against compound concentration on a log scale to determine an IC50 from the resultant sigmoid curve.
Where more than one reading was taken, the arithmetic mean is presented.

Chain of TRKA (P04629 441-796): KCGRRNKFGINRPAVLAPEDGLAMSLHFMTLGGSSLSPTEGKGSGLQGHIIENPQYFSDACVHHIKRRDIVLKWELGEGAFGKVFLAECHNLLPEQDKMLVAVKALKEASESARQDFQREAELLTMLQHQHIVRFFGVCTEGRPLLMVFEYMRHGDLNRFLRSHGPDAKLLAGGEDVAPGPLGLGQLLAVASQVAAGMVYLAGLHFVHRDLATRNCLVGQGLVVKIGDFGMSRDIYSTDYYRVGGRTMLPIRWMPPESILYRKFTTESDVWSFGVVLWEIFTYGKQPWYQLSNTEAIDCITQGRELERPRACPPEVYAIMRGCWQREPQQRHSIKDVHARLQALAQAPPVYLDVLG

Molecule | IC50 [nM]
O=C(Cc1cccc(OC(F)(F)F)c1)Nc1cc(C(=O)c2cn(C3COC3)c3ccncc23)ccn1 [Example 194, N-(4-{[1-(oxetan-3-yl)-1H-pyrrolo[3,2-c]pyridin-3-yl]carbonyl}pyridin-2-yl)-2-[3-(trifluoromethoxy)phenyl]acetamide] | 13.8
CC(CO)n1cc(C(=O)c2cncc(NC(=O)Cc3ccc(F)cn3)c2)c2cncc(F)c21 (single isomer, unassigned) [Example 218, N-(5-{[7-fluoro-1-(1-hydroxypropan-2-yl)-1H-pyrrolo[3,2-c]pyridin-3-yl]carbonyl}pyridin-3-yl)-2-(5-fluoropyridin-2-yl)acetamide] | 425
O=C(Cc1ccc(F)cc1F)Nc1cc(C(=O)c2cn(C3COC3)c3ccncc23)ccn1 [Example 198, 2-(2,4-difluorophenyl)-N-(4-{[1-(oxetan-3-yl)-1H-pyrrolo[3,2-c]pyridin-3-yl]carbonyl}pyridin-2-yl)acetamide] | 105
CC(C)n1cc(C(=O)c2cncc(NC(=O)Cn3ccc(C4CC4)n3)c2)c2cncc(F)c21 [Example 90, 2-(3-cyclopropyl-1H-pyrazol-1-yl)-N-(5-{[7-fluoro-1-(propan-2-yl)-1H-pyrrolo[3,2-c]pyridin-3-yl]carbonyl}pyridin-3-yl)acetamide] | 19.6
O=C(Cc1ccccc1OC(F)(F)F)Nc1cc(C(=O)c2cn(CCO)c3ccncc23)ccn1 [Example 143, N-(4-{[1-(2-hydroxyethyl)-1H-pyrrolo[3,2-c]pyridin-3-yl]carbonyl}pyridin-2-yl)-2-[2-(trifluoromethoxy)phenyl]acetamide] | 986
CC(CO)n1cc(C(=O)c2cncc(NC(=O)Cn3cc(C4CC4)nn3)c2)c2cnccc21 (single isomer, unassigned) [Example 61, 2-(4-cyclopropyl-1H-1,2,3-triazol-1-yl)-N-(5-{[1-(1-hydroxypropan-2-yl)-1H-pyrrolo[3,2-c]pyridin-3-yl]carbonyl}pyridin-3-yl)acetamide] | 65.9
CC(C)n1cc(C(=O)c2cncc(NC(=O)Cc3ccc(Cl)cc3)c2)c2cnccc21 [Example 116, 2-(4-chlorophenyl)-N-(5-{[1-(propan-2-yl)-1H-pyrrolo[3,2-c]pyridin-3-yl]carbonyl}pyridin-3-yl)acetamide] | 11.3
CC(C)n1cc(C(=O)c2cncc(NC(=O)Cc3cnccn3)c2)c2cnccc21 [Example 133, N-(5-{[1-(propan-2-yl)-1H-pyrrolo[3,2-c]pyridin-3-yl]carbonyl}pyridin-3-yl)-2-(pyrazin-2-yl)acetamide] | 4340
CC(CO)n1cc(C(=O)c2cncc(NC(=O)Cc3ccc(Cl)cc3)c2)c2cncc(F)c21 (single isomer, unassigned) [Example 206, 2-(4-chlorophenyl)-N-(5-{[7-fluoro-1-(1-hydroxypropan-2-yl)-1H-pyrrolo[3,2-c]pyridin-3-yl]carbonyl}pyridin-3-yl)acetamide] | 20.7
CC(C)(CO)n1cc(C(=O)c2cncc(NC(=O)Cn3ccc(C4CC4)n3)c2)c2cncc(F)c21 [Example 2, 2-(3-Cyclopropyl-pyrazol-1-yl)-N-{5-[7-fluoro-1-(2-hydroxy-1,1-dimethyl-ethyl)-1H-pyrrolo[3,2-c]pyridine-3-carbonyl]-pyridin-3-yl}-acetamide] | 5.58
Cc1nn(C)cc1CC(=O)Nc1ccnc(C(=O)c2cn(C(C)C)c3ccncc23)c1 [Example 58, 2-(1,3-dimethyl-1H-pyrazol-4-yl)-N-(2-{[1-(propan-2-yl)-1H-pyrrolo[3,2-c]pyridin-3-yl]carbonyl}pyridin-4-yl)acetamide] | 6520
O=C(Nc1cc(C(=O)c2cn(C3COC3)c3ccncc23)ccn1)c1cccc(OC(F)(F)F)c1 [Example 205, N-(4-{[1-(oxetan-3-yl)-1H-pyrrolo[3,2-c]pyridin-3-yl]carbonyl}pyridin-2-yl)-3-(trifluoromethoxy)benzamide] | 33
Cc1ccn(CC(=O)Nc2cc(C(=O)c3cn(CCO)c4ccncc34)ccn2)n1 [Example 150, N-(4-{[1-(2-hydroxyethyl)-1H-pyrrolo[3,2-c]pyridin-3-yl]carbonyl}pyridin-2-yl)-2-(3-methyl-1H-pyrazol-1-yl)acetamide] | 3080
2-(3-methoxyphenyl)-N-(5-{[1-(propan-2-yl)-1H-pyrrolo[3,2-c]pyridin-3-yl]carbonyl}pyridin-3-yl)acetamide [Example 129] | 96.2
N-(4-{[1-(propan-2-yl)-1H-pyrrolo[3,2-c]pyridin-3-yl]carbonyl}pyridin-2-yl)-2-[4-(trifluoromethoxy)phenyl]acetamide [Example 168] | 14.7
CC(CO)n1cc(C(=O)c2cncc(NC(=O)Cc3ccc(C(F)(F)F)cc3)c2)c2cnccc21 (single isomer, unassigned) [Example 35, N-(5-{[1-(1-hydroxypropan-2-yl)-1H-pyrrolo[3,2-c]pyridin-3-yl]carbonyl}pyridin-3-yl)-2-[4-(trifluoromethyl)phenyl]acetamide] | 87.9

Continued, values first:

IC50 [nM] | Molecule
177 | CC(C)n1cc(C(=O)c2cc(NC(=O)Cc3cnn(C4CC4)c3C(F)(F)F)ccn2)c2cnccc21 [Example 56, 2-[1-cyclopropyl-5-(trifluoromethyl)-1H-pyrazol-4-yl]-N-(2-{[1-(propan-2-yl)-1H-pyrrolo[3,2-c]pyridin-3-yl]carbonyl}pyridin-4-yl)acetamide]
67 | CC(C)n1cc(C(=O)c2ccnc(NC(=O)Cc3ccc(F)cn3)c2)c2cnccc21 [Example 81, 2-(5-fluoropyridin-2-yl)-N-(4-{[1-(propan-2-yl)-1H-pyrrolo[3,2-c]pyridin-3-yl]carbonyl}pyridin-2-yl)acetamide]
1680 | CC(C)n1cc(C(=O)c2cc(NC(=O)Cc3cn(C4CC4)nc3C(F)(F)F)ccn2)c2cnccc21 [Example 57]
10100 | CC(C)n1cc(C(=O)c2ccnc(NC(=O)Cn3cncn3)c2)c2cnccc21 [Example 193, N-(4-{[1-(propan-2-yl)-1H-pyrrolo[3,2-c]pyridin-3-yl]carbonyl}pyridin-2-yl)-2-(1H-1,2,4-triazol-1-yl)acetamide]
108 | CC(C)n1cc(C(=O)c2ccnc(NC(=O)Cc3ccccc3Cl)c2)c2cnccc21 [Example 105, 2-(2-chlorophenyl)-N-(4-{[1-(propan-2-yl)-1H-pyrrolo[3,2-c]pyridin-3-yl]carbonyl}pyridin-2-yl)acetamide]
31.1 | CC(C)n1cc(C(=O)c2ccnc(NC(=O)Cc3cccc(CC(C)(C)O)c3)c2)c2cnccc21 [Example 97, 2-[3-(2-hydroxy-2-methylpropyl)phenyl]-N-(4-{[1-(propan-2-yl)-1H-pyrrolo[3,2-c]pyridin-3-yl]carbonyl}pyridin-2-yl)acetamide]
21.4 | Cc1cnn(CC(=O)Nc2cncc(C(=O)c3cn(C(C)C)c4ccncc34)c2)c1 [Example 25, 2-(4-methyl-1H-pyrazol-1-yl)-N-(5-{[1-(propan-2-yl)-1H-pyrrolo[3,2-c]pyridin-3-yl]carbonyl}pyridin-3-yl)acetamide]
10.7 | CC(C)n1cc(C(=O)c2ccnc(NC(=O)Cn3cc(C(F)(F)F)nn3)c2)c2cnccc21 [Example 163, N-(4-{[1-(propan-2-yl)-1H-pyrrolo[3,2-c]pyridin-3-yl]carbonyl}pyridin-2-yl)-2-[4-(trifluoromethyl)-1H-1,2,3-triazol-1-yl]acetamide]
40.6 | CC(C)c1cn(CC(=O)Nc2cc(C(=O)c3cn(C(C)C)c4ccncc34)ccn2)nn1 [Example 98, N-(4-{[1-(propan-2-yl)-1H-pyrrolo[3,2-c]pyridin-3-yl]carbonyl}pyridin-2-yl)-2[4-(propan-2-yl)-1H-1,2,3-triazol-1-yl]acetamide]
59.5 | CC(C)c1cn(CC(=O)Nc2cncc(C(=O)c3cn(C(C)C)c4ccncc34)c2)nn1 [Example 123]
7.41 | CC(C)n1cc(C(=O)c2ccnc(NC(=O)Cc3cccc(OC(F)(F)F)c3)c2)c2cnccc21 [Example 191, N-(4-{[1-(propan-2-yl)-1H-pyrrolo[3,2-c]pyridin-3-yl]carbonyl}pyridin-2-yl)-2-[3-(trifluoromethoxy)phenyl]acetamide]
536 | CC(C)n1cc(C(=O)c2ccnc(NC(=O)Cc3cscn3)c2)c2cnccc21 [Example 181, N-(4-{[1-(propan-2-yl)-1H-pyrrolo[3,2-c]pyridin-3-yl]carbonyl}pyridin-2-yl)-2(1,3-thiazol-4-yl)acetamide]
